Results published in the supplement of paper PMC11451515.

Columns and labels:
Test in all cases: AUC of viability dose-response curve (% viability x log10 dose units); higher = less sensitive
Conditions in all cases: 48 h
[1] = system: NOMO1
In short: (§1)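 Area under the curve was integrated by trapezoidal rule from a log-logistic fit of normalised viability, with curves exceeding full viability scaled and quality-control failures removed. The fit had four parameters over log10 doses. Viability came from CellTiter-Glo One luminescence, normalised per plate to DMSO and cell-free wells, after leukemia cells adapted to each medium (500 or 1000 cells/well, 1536-well plates) were exposed to library compounds in DMSO for 48 h at 37°C. The 11 threefold doses ran from 47 μM to 0.79 nM.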

[2] = system: P12-Ichikawa
In short: as §1

[3] = system: SEM cells
In short: as §1

[4] = RPMI 5 mM glucose + 10% dialyzed FBS

SMILES | AUC of viability dose-response curve ([1]; HPLM + 10% dialyzed FBS) | AUC of viability dose-response curve ([1]; RPMI 5 mM glucose + 10% FBS) | AUC of viability dose-response curve [1, 4] | AUC of viability dose-response curve ([2]; HPLM + 10% dialyzed FBS) | AUC of viability dose-response curve ([2]; RPMI 5 mM glucose + 10% FBS) | AUC of viability dose-response curve [2, 4] | AUC of viability dose-response curve ([3]; HPLM + 10% dialyzed FBS) | AUC of viability dose-response curve ([3]; RPMI 5 mM glucose + 10% FBS) | AUC of viability dose-response curve [3, 4]
CC(C)(C)c1cc(C=C(C#N)C#N)cc(Br)c1O | 473 | 471 | 456 | 453 | 452 | 452 | – | – | –
Cn1cc(-c2ccc3nnc(C(F)(F)c4ccc5ncccc5c4)n3n2)cn1 | 469 | 435 | 470 | 447 | 452 | 454 | 463 | 469 | 455
CNC1[C@@H](O)C(O[C@@H]2C(O)C(O[C@H]3O[C@H]([C@@H](C)NC)CC[C@H]3N)[C@@H](N)C[C@H]2N)OC[C@]1(C)O (some centres undefined) | 446 | 448 | 415 | 462 | 444 | 436 | 459 | 421 | 472
CC(=O)Nc1ccc([C@H](C)C(=O)Nc2ncc(C(C)C)s2)cc1 | 397 | 365 | 386 | 403 | 411 | 408 | 390 | 393 | 387
O=C1Nc2cc(Br)ccc2/C1=C1/Nc2ccccc2/C1=N\O | 366 | 391 | 401 | 365 | 377 | 382 | 296 | 299 | 290
OCc1ccc(-c2nn(Cc3ccccc3)c3ccccc23)o1 | 385 | 425 | 405 | 442 | 464 | 459 | 369 | 346 | 347
OC[C@H](Cc1ccccc1)Nc1nc(Oc2ccc3c(c2)CCC3)nc2c1ncn2Cc1ccc(-c2ccccc2)cc1 | 463 | 434 | 458 | 454 | 431 | 418 | 455 | 428 | 432
CO[C@H]1C[C@@H]2CC[C@@H](C)[C@@](O)(O2)C(=O)C(=O)N2CCCC[C@H]2C(=O)O[C@H]([C@H](C)C[C@@H]2CC[C@@H](OC(=O)C(C)(CO)CO)[C@H](OC)C2)CC(=O)[C@H](C)/C=C(\C)[C@@H](O)[C@@H](OC)C(=O)[C@H](C)C[C@H](C)/C=C/C=C/C=C/1C | 453 | 435 | 447 | 427 | 409 | 418 | – | – | –
C[C@@H](O)[C@@H]1[C@H]2[C@@H](C)\C(=C(/N2C1=O)C(=O)OCOC(=O)C(C)(C)C)SC3CN(C3)/C4=N/CCS4 | 421 | 465 | 454 | 471 | 469 | 464 | 467 | 467 | 467
CN(C)CCc1c[nH]c2ccc(C[C@H]3COC(=O)N3)cc12 | 423 | 433 | 449 | 405 | 409 | 411 | 384 | 340 | 381
CC(=O)N1CCN(c2ccc(OC[C@H]3CO[C@](Cn4ccnc4)(c4ccc(Cl)cc4Cl)O3)cc2)CC1 | 437 | 456 | 470 | 449 | 456 | 452 | 391 | 340 | 336
COc1cc(O)c2c(c1)C1OC1C[C@H](O)[C@H](O)C(=O)/C=C\C[C@H](C)OC2=O (some centres undefined) | 418 | 427 | 427 | 443 | 441 | 442 | 394 | 394 | 384
O=C(NC[C@H](O)CN1CCc2ccccc2C1)c1cc(NC2COC2)ncn1 | – | – | – | 397 | 372 | 388 | – | – | –
CC1(C)OC2CC3C4CC(F)C/5=C/C(=O)/C=C\C5(C)C4C(O)CC3(C)[C@@]2(O1)C(=O)CO (some centres undefined) | 454 | 465 | 456 | 390 | 340 | 325 | 386 | 360 | 354
CC(=O)C\1=C(/C)C2=CN=C(NC3=CC=C(C=N3)N4CCNCC4)N=C2N(C5CCCC5)C1=O | 424 | 429 | 406 | 420 | 400 | 392 | 357 | 378 | 365
C[C@@H]1CN[C@H]2[C@@H](C)[C@@]\3(CC[C@H]\4[C@@H]5C/C=C6/C[C@@H](O)CC[C@]6(C)[C@H]5CC4=C3C)O[C@@H]2C1 | 449 | 460 | 451 | 454 | 441 | 449 | 460 | 462 | 469
CC(C)C[C@H](NC(=O)[C@@H](NC(=O)c1cccc(-c2ccccc2)n1)[C@@H](C)O)B(O)O | 212 | 218 | 230 | 197 | 184 | 201 | 155 | 149 | 149
COc1cc2c(Oc3ccc(NC(=O)C4(C(=O)Nc5ccc(F)cc5)CC4)cc3F)ccnc2cc1OCCCN1CCOCC1 | 334 | 343 | 311 | 291 | 296 | 299 | 136 | 149 | 105
N[S+](=O)([O-])c1cc(Cl)c(Cl)c([S+](N)(=O)[O-])c1 | 453 | 445 | 458 | 448 | 460 | 473 | 450 | 446 | 449
CCOC(=O)N1CCN(/[N+]([O-])=N/Oc2ccc([N+](=O)[O-])cc2[N+](=O)[O-])CC1 | 462 | 429 | 412 | 447 | 425 | 398 | 303 | 324 | 337
COc1cc(C(C)=O)ccc1OCCCN1CCC(c2noc3cc(F)ccc23)CC1 | 468 | 468 | 464 | 470 | 472 | 471 | 468 | 446 | 455
CC(=O)O[C@@]1(CC[C@H]2[C@@H]3\C=C(C)/C4=C/C(=O)CC[C@]4(C)[C@H]3CC[C@]12C)C(C)=O | 459 | 465 | 449 | 470 | 460 | 464 | 444 | 455 | 472
CC(=O)OCC(=O)[C@@]12\N=C(C)/O[C@@H]1C[C@H]3[C@@H]4CCC/5=C/C(=O)/C=C\[C@]5(C)[C@H]4[C@@H](O)C[C@]23C | 470 | 468 | 462 | 436 | 427 | 415 | 404 | 432 | 444

SMILES | AUC of viability dose-response curve ([1]; HPLM + 10% dialyzed FBS) | AUC of viability dose-response curve ([1]; RPMI 5 mM glucose + 10% FBS) | AUC of viability dose-response curve [1, 4] | AUC of viability dose-response curve ([2]; HPLM + 10% dialyzed FBS) | AUC of viability dose-response curve ([2]; RPMI 5 mM glucose + 10% FBS) | AUC of viability dose-response curve [2, 4] | AUC of viability dose-response curve ([3]; HPLM + 10% dialyzed FBS) | AUC of viability dose-response curve ([3]; RPMI 5 mM glucose + 10% FBS) | AUC of viability dose-response curve [3, 4]
CCOc1ccc(Nc2nc(-c3c(C)nc4ccccn34)cs2)cc1 | 270 | 252 | 281 | 225 | 232 | 271 | 232 | 213 | 263
O=C1Nc2ccc(Cl)cc2[C@@](C#CC2CC2)(C(F)(F)F)O1 | 381 | 364 | 437 | 430 | 395 | 378 | 413 | 389 | 375
CCc1c(C(=O)C(N)=O)c2c(OCC(=O)O)cccc2n1Cc1ccccc1 | 442 | 465 | 463 | 471 | 460 | 452 | 462 | 464 | 461
NC(=O)c1ncn([C@@H]2O[C@H](CO)[C@@H](O)[C@H]2O)n1 | 354 | 403 | 380 | 447 | 424 | 423 | 471 | 453 | 471
COC[C@@H](NC(C)=O)C(=O)NCc1ccccc1 | 457 | 467 | 466 | 453 | 465 | 466 | 466 | 449 | 456
C=CC1=C(C(=O)O)N2C(=O)[C@@H](NC(=O)/C(=N\O)c3csc(N)n3)[C@H]2SC1 | 467 | 438 | 462 | – | – | – | 397 | 435 | 433
Cc1cc(Nc2nc(N[C@@H](C)c3ncc(F)cn3)ncc2Cl)n[nH]1 | 363 | 408 | 422 | 421 | 454 | 425 | 399 | 336 | 365
Oc1ccc(/C=C/c2cc(O)cc(O)c2)cc1 | 425 | 457 | 450 | 462 | 457 | 444 | 450 | 417 | 441
OC[C@H]1O[C@H]([C@@H](F)[C@@H]1O)N2\C=C/C(=O)NC2=O | 470 | 430 | 464 | 460 | 475 | 449 | 454 | 463 | 432
O=C1C[C@@H](c2ccc(O)cc2)Oc2cc(O)cc(O)c21 | 437 | 476 | 458 | 433 | 462 | 456 | 468 | 382 | 470
C[C@@H]1COCCN1C\2=C\C(=O)N\3CC[C@H](N(CC4=CN=CC(=C4)Cl)C3=N2)C(F)(F)F | 430 | 418 | 400 | 417 | 409 | 415 | 391 | 404 | 397
CCn1c(-c2nonc2N)nc2cncc(CNC3CCNCC3)c21 | 419 | 437 | 443 | 399 | 424 | 411 | 414 | 357 | 417
CCC[C@H](N[C@@H](C)C(=O)N1[C@H](C(=O)O)C[C@@H]2CCCC[C@@H]21)C(=O)OCC | 394 | 439 | 399 | 454 | 433 | 438 | 469 | 469 | 466
Oc1ccc(C2CCN(c3ccnc4ccccc34)CC2)cc1O | 445 | 457 | 467 | 427 | 418 | 408 | 399 | 386 | 404
[NH2][Pt]([NH2])([Cl])[Cl] | 456 | 421 | 445 | 470 | 449 | 433 | 429 | 419 | 380
CC(C)Nc1cc(C(F)(F)F)cc2nc(NC(=O)c3cccnc3)nn12 | 406 | 394 | 386 | 334 | 364 | 350 | 340 | 323 | 329
CN(C)C(=O)c1ccc([S+](=O)([O-])c2ccc(NC(=O)[C@@](C)(O)C(F)(F)F)c(Cl)c2)cc1 | 411 | 425 | 451 | 455 | 448 | 446 | 472 | 417 | 444
Cc1ncc(OC[C@@]2(c3cccc(F)c3)C[C@H]2C(=O)Nc2ccc(F)cn2)c(C)n1 | 476 | 474 | 464 | 455 | 474 | 470 | 444 | 435 | 452
CCOC(=O)[C@H](CCc1ccccc1)N[C@@H](C)C(=O)N1CCC[C@H]1C(=O)O | 453 | 437 | 461 | 452 | 447 | 465 | 462 | 470 | 434
CN1CCC(CC1)COC2=CN=C(N=C2)C3=CC(=CC=C3)CN4/N=C(\C=C/C4=O)C5=CC(=CC=C5)C#N | 468 | 464 | 471 | 472 | 465 | 464 | – | – | –
NC(CO)(CO)CCc1ccc(Sc2cccc(OCc3ccccc3)c2)cc1Cl | 397 | 424 | 453 | 400 | 408 | 400 | – | – | –
CCN(CC)C(=S)SSC(=S)N(CC)CC | 375 | 365 | 361 | 366 | 363 | 362 | – | – | –
NC1=NC=C(C=C1)C2=CC=C3N=CC\4=C(N(C(=O)\C=C4)C5=CC(=CC=C5)C(F)(F)F)C3=C2 | 191 | 214 | 194 | – | – | – | – | – | –
